Like-named read-outs stand apart in the source and are kept apart here. Where a SMILES comes first, the peptide text is derived from it.
Assays:
SARS-CoV-2 M^Pro [1] = target: T1, SARS-CoV-2 M^Pro (Severe acute respiratory syndrome coronavirus 2, UniProt P0DTD1); assay: Determination of IC50 values for SARS-CoV-2 M^Pro (fluorogenic peptide substrate, end-point); assay type: biochemical; conditions: 12.5 nM M^Pro, 20 min preincubation, 30 μM substrate; read-out: M^Pro IC50
SARS-CoV-2 M^Pro [2] = target: T1, SARS-CoV-2 M^Pro; assay: Determination of KI values for SARS-CoV-2 M^Pro (initial velocity, competitive inhibition); assay type: biochemical; conditions: competitive inhibition, initial velocity; read-out: M^Pro Ki
SARS-CoV-2 M^Pro [3] = target: T1, SARS-CoV-2 M^Pro; assay: Determination of kinact/KI values for SARS-CoV-2 M^Pro (time- and concentration-dependent inactivation); assay type: biochemical
Protocol: where νo is the initial velocity of uninhibited reaction and νi is the initial velocity in the presence of inhibitor. All measurements were done in triplicate. Determination of kinact/KI values for SARS-CoV-2 M^Pro
Time- and concentration-dependent inactivation assays were done by following a similar protocol as described for Ki determination. M^Pro (12.5 nM final) was treated with the peptide-substrate (30 μM final) and test inhibitor (0-80 μM for D-FF(R/Cit)-(CMK/CMKyne); 0-1.25 mM for SM136-145) at time=0 to initiate inactivation process. The total volume of the assay mixture was 50 μL. Time-dependent increase in fluorescence was monitored at 485 nm with excitation at 340 nm for a period of 20-25 min. The observed rates (kobs) for the peptide cleavage in both the presence and absence of inhibitor were determined by fitting to a single-phase association equation. The resulting kobs values were plotted against the concentrations of inhibitor and linear fits were used to derive the slope that afforded the kinact/KI values. All measurements were done in triplicate.

SARS-CoV-2 PL^Pro = SARS-CoV-2 PL^Pro (Severe acute respiratory syndrome coronavirus 2, UniProt P0DTD1); assay: Determination of IC50 values for SARS-CoV-2 PL^Pro (Z-RLRGG-AMC substrate); assay type: biochemical; conditions: 30 nM PL^Pro, 20 min preincubation; read-out: PL^Pro IC50
Cathepsin L = target: T2, Cathepsin L (Homo sapiens, UniProt P07711); assay: Cathepsin L inhibition assay kit (Abcam), IC50 and kinact/KI; assay type: biochemical; conditions: for IC50: 20 min pretreatment; for kinact/KI: read-out: Cathepsin L kinact/KI
T2 construct: purchased Abcam ab197012
T2 sequence (P07711 114-333): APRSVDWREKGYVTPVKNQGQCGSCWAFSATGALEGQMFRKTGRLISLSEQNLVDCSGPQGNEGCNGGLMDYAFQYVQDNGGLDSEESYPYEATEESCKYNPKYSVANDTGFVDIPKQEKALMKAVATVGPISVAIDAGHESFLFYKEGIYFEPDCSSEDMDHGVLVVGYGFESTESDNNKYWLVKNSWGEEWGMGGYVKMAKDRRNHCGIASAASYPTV
Protocol: (§1) Determination of IC50 and kinact/KI values for Cathepsins L and B
IC50 and kinact/KI values of the inhibitors were determined using commercially available inhibition assay kits (Abcam) by following the manufacturer's protocol. […] The observed rates (kobs) were determined by fitting to a single-phase association equation. The resulting kobs values were plotted against the concentrations of inhibitor and the data were fit to equation 2 to derive the kinact/KI values,
using GraphPad Prism, where kinact is the maximal rate of inactivation, KI is the concentration of inhibitor that affords half-maximal inactivation, and [I] is the concentration of inhibitor. When kobs with [I] varied linearly, kinact/KI was determined from the slope of the line. All the experiments were performed in triplicate. […] Crystallization of M^Pro in Complex with Inhibitors

Cathepsin B = target: T3, Cathepsin B (Homo sapiens, UniProt P07858); assay: Cathepsin B inhibition assay kit (Abcam), IC50; assay type: biochemical; conditions: 20 min pretreatment
T3 construct: purchased Abcam ab185438
Protocol: as §1
IC50 and kinact/KI values of the inhibitors were determined using commercially available inhibition assay kits (Abcam) by following the manufacturer's protocol. For IC50 values, enzymes were pretreated with test inhibitor (0-50 μM) for 20 min prior to adding the fluorogenic substrate, and end-point fluorescence was recorded after 30 min. For the kinact/KI values, enzymes were treated with inhibitor and substrate simultaneously and increase in fluorescence was monitored over 60 min. The observed rates (kobs) were determined by fitting to a single-phase association equation. The resulting kobs values were plotted against the concentrations of inhibitor and the data were fit to equation 2 to derive the kinact/KI values,
using GraphPad Prism, where kinact is the maximal rate of inactivation, KI is the concentration of inhibitor that affords half-maximal inactivation, and [I] is the concentration of inhibitor. When kobs with [I] varied linearly, kinact/KI was determined from the slope of the line. All the experiments were performed in triplicate. All fluorescence measurements were taken at absorption/emission wavelength of 400/505 nm using an EnVision 2105 plate reader. Crystallization of M^Pro in Complex with Inhibitors

A549-hACE2 cells = conditions: Table 2; data from medRxiv preprint; cited from earlier work
[4] = data from medRxiv preprint; cited from earlier work
CYP3A4/5 = conditions: data from medRxiv preprint; cited from earlier work
SARS-CoV-2 = assay: microbe, parasite or virus in culture; assay type: cell-based; conditions: A549-hACE2 cells

Compound | IC50 (SARS-CoV-2 M^Pro [1]) | Ki (SARS-CoV-2 M^Pro [2]) | kinact/KI (SARS-CoV-2 M^Pro [3]; read-out: M^Pro kinact/KI) | IC50 (SARS-CoV-2 PL^Pro) | IC50 (Cathepsin B) | further results
CCOC(=O)C=CC(CC1CCNC1=O)NC(=O)C(Cc1ccccc1)NC(=O)C(N)Cc1ccc(F)cc1 (centres unmarked) [SM143] | 0.9 µM | 7 µM | 350 M⁻¹ s⁻¹ | > 50 µM | > 50 µM | IC50 (Cathepsin L): 0.073 µM; kinact/KI (Cathepsin L): 2330 M⁻¹ s⁻¹
NC(=O)NCCC[C@H](NC(=O)[C@H](Cc1ccccc1)NC(=O)[C@H](N)Cc1ccccc1)C(=O)CCl [D-FFCit-CMK] (HELM PEPTIDE1{[dF].F.[Cit].[ClC[*:1]]}$$$$V2.0) | 0.13 µM | – | – | > 50 µM | – | –
CC(C)(C)[C@H](NC(=O)C(F)(F)F)C(=O)N1C[C@H]2[C@@H]([C@H]1C(=O)N[C@H](C#N)C[C@@H]1CCNC1=O)C2(C)C [nirmatrelvir] | – | – | – | – | – | cytoxcity (A549-hACE2 cells): >3 µM; Fa × Fg [4]: 95%; CYP3A4/5 metabolism (CYP3A4/5): HIGH
CCOC(=O)C=CC(CC1CCNC1=O)NC(=O)C(Cc1ccc(F)cc1)NC(=O)C(N)Cc1ccc(F)cc1 (centres unmarked) [SM139] | 10 µM | 65 µM | 25 M⁻¹ s⁻¹ | – | – | –
N=C(N)NCCC[C@H](NC(=O)[C@H](Cc1ccccc1)NC(=O)[C@H](N)Cc1ccccc1)C(=O)CCl [D-FFR-CMK] (HELM PEPTIDE1{[dF].F.R.[ClC[*:1]]}$$$$V2.0) | 0.1 µM | – | – | 5 µM | – | –
CCOC(=O)C=CC(CC1CCNC1=O)NC(=O)C(Cc1ccc(F)cc1)NC(=O)C(N)Cc1ccccc1 (centres unmarked) [SM137] | 10 µM | 50 µM | 30 M⁻¹ s⁻¹ | – | – | –
CCOC(=O)C=CC(CC1CCNC1=O)NC(=O)C(Cc1ccc(F)cc1)NC(=O)C(Cc1ccccc1)NC(=O)OC(C)(C)C (centres unmarked) [SM136] | 20 µM | 73 µM | 12.8 M⁻¹ s⁻¹ | – | – | –
C#CCOCCC(=O)NC(Cc1ccccc1)C(=O)NC(Cc1ccccc1)C(=O)NC(C=CC(=O)OCC)CC1CCNC1=O (centres unmarked) [SM145] | 0.8 µM | 5.3 µM | 400 M⁻¹ s⁻¹ | > 50 µM | > 50 µM | kinact/KI (SARS-CoV-2 M^Pro [3]; read-out: second-order rate constant for enzyme inactivation (kinact/KI), M^Pro): 400 M⁻¹ s⁻¹; IC50 (Cathepsin L): 0.2 µM; kinact/KI (Cathepsin L): 417 M⁻¹ s⁻¹; antiviral activity compared with SM141 and SM142 (SARS-CoV-2): significantly lower antiviral activity than SM141 and SM142
CCOC(=O)C=CC(CC1CCNC1=O)NC(=O)C(Cc1ccc(F)cc1)NC(=O)C(Cc1ccc(F)cc1)NC(=O)OC(C)(C)C (centres unmarked) [SM138] | – | – | 10.8 M⁻¹ s⁻¹ | – | – | –
CCOC(=O)C=CC(CC1CCNC1=O)NC(=O)C(Cc1ccccc1)NC(=O)C(Cc1ccccc1)NC(=O)OC(C)(C)C (centres unmarked) [SM140] | 2.2 µM | 16 µM | 150 M⁻¹ s⁻¹ | > 50 µM | > 50 µM | –
